Results on 16 compounds are retold here after ChEMBL document CHEMBL2311352, “Discovery of 4-phenyl-2-phenylaminopyridine based TNIK inhibitors” (Bioorg Med Chem Lett, 2013).

For data set [1], the target named is T1, TRAF2 and NCK-interacting protein kinase (Homo sapiens, UniProt Q9UKE5). The data set can be described thus: Ratio of IC50 for TNIK-mediated TCF4/[…] transcription in human HCT116 cells to IC50 for TNIK (unknown origin). Format: cell-based. To be noted: HCT-116.
Target sequence in this assay (Q9UKE5 whole entry, looked up): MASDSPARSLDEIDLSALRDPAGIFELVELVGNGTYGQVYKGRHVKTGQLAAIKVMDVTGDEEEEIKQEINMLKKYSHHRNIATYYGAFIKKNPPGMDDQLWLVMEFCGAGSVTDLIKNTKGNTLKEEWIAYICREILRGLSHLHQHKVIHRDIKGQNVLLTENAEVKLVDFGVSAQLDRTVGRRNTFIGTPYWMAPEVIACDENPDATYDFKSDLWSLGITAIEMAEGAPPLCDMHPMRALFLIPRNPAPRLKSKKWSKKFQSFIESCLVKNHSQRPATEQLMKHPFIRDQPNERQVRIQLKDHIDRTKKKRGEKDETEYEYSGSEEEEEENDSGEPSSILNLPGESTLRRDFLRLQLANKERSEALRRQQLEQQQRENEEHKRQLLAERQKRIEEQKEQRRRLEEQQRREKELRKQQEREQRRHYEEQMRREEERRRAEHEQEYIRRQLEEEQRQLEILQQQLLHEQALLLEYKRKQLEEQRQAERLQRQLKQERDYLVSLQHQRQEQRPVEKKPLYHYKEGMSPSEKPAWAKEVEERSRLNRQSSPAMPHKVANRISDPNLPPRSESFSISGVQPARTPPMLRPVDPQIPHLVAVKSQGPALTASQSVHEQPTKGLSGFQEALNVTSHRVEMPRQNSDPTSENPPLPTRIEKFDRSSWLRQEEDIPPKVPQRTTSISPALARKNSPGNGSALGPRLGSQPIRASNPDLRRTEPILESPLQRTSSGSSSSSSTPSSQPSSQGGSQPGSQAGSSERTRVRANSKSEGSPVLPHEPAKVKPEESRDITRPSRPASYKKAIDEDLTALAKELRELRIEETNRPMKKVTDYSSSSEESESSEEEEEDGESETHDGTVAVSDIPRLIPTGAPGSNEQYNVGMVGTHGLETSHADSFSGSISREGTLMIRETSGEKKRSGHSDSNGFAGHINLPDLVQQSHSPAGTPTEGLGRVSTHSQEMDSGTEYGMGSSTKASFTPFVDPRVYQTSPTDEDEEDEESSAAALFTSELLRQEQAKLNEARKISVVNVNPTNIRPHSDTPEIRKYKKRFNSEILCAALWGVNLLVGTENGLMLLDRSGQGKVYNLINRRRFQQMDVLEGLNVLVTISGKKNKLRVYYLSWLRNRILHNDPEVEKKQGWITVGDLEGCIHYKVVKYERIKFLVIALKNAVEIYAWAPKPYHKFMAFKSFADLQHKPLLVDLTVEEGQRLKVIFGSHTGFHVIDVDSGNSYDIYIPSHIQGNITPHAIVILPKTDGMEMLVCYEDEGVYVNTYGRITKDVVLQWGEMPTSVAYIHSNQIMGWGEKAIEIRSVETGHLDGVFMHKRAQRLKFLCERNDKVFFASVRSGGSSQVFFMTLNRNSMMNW
The target in data set [2] is T1, TRAF2 and NCK-interacting protein kinase. Put plainly: Inhibition of TNIK-mediated TCF4/[…] transcription in human HCT116 cells by beta-lactamase reporter gene assay. Format: cell-based, HCT-116. On the technique in general: A reporter such as luciferase makes a cellular process visible.
Target sequence in this assay (Q9UKE5 whole entry): as the sequence (Q9UKE5 whole entry, looked up) above
For data set [3] the target is unchanged. Put plainly: Inhibition of TNIK (unknown origin) by ADP glo luminescent assay. For orientation: In ADP-Glo the light output rises with the ADP produced.
Target sequence in this assay (Q9UKE5 whole entry): as the sequence (Q9UKE5 whole entry, looked up) above
For data set [4], the target named is Voltage-gated inwardly rectifying potassium channel KCNH2 (Homo sapiens, UniProt Q12809). The data set can be described thus: Inhibition of human ERG by patch clamp assay. A general note: Patch clamp records ionic current or voltage across a cell membrane.
Sequence of Voltage-gated inwardly rectifying potassium channel KCNH2 (Q12809 whole entry): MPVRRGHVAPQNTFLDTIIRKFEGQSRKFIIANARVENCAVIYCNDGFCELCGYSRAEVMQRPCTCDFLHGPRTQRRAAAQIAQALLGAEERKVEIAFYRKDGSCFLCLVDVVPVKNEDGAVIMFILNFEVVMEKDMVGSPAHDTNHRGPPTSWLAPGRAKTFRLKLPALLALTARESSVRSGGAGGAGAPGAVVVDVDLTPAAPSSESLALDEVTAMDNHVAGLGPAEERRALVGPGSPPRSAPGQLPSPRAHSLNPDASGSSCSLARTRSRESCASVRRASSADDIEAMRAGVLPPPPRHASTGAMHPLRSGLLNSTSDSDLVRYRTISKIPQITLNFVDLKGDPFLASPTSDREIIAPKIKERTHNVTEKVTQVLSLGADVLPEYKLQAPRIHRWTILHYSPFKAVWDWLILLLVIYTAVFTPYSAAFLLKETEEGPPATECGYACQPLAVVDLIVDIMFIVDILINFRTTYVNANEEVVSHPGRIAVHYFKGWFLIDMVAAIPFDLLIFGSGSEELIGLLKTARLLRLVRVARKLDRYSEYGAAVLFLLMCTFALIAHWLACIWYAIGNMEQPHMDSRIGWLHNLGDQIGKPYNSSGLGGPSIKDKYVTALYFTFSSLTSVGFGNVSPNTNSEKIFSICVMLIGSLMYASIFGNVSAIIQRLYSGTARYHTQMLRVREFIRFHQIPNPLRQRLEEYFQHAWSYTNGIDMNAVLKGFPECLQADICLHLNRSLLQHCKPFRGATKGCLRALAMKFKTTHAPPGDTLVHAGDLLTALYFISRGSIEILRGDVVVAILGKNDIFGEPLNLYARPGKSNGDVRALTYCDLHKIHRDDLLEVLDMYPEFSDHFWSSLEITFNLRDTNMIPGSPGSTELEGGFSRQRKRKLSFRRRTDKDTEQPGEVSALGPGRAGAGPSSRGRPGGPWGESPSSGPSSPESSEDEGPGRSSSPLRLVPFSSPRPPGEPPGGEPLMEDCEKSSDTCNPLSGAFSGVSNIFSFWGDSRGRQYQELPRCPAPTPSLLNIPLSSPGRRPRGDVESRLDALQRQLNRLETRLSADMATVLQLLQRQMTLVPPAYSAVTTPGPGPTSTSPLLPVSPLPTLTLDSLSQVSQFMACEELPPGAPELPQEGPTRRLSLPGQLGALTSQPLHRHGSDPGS
The subject of data set [5] is HCT-116. The data set can be described thus: Cytotoxicity against wnt-activated human HCT116 cells assessed as cell viability. Format: functional, cell-based.
Data set [6] relates to DLD-1. The data set can be described thus: Cytotoxicity against wnt-activated human DLD1 cells assessed as cell viability. Format: functional, cell-based.
In data set [7] the test system is HEK293. Put plainly: Cytotoxicity against wnt-inactivated human HEK293 cells assessed as cell viability. The data set is classed as functional, cell-based.
Data set [8] concerns HeLa. Put plainly: Cytotoxicity against wnt-inactivated human HeLa cells assessed as cell viability. Format: functional, cell-based.
The nature of data set [9]: Inhibition of CBP binding to […] in human SW480 cells by immunoblot analysis. Format: cell-based.
Data set [10] concerns Caco-2. Put plainly: Ratio of apparent permeability across basolateral to apical side over apical to basolateral side in human Caco2 cells. The data set is classed as ADME, cell-based.
A short description of data set [11]: Apparent permeability across basolateral to apical side in human Caco2 cells. Format: ADME, cell-based. To be noted: Caco-2.
A short description of data set [12]: Apparent permeability across apical to basolateral side in human Caco2 cells. The data set is classed as ADME, cell-based. To be noted: Caco-2.
Data set [13] in a line: Solubility of the compound in phosphate buffer at pH 7.4. Format: physicochemical.
For data set [14], the target named is T1, TRAF2 and NCK-interacting protein kinase. Put plainly: Competitive binding affinity to TNIK (unknown origin) in presence of ATP.
Target sequence in this assay (Q9UKE5 whole entry): as the sequence (Q9UKE5 whole entry, looked up) above
The target of data set [15] is Serine/threonine-protein kinase Chk1 (Homo sapiens) (UniProt O14757). Put plainly: Inhibition of CHK1 (unknown origin) at 1 uM.
Sequence of Serine/threonine-protein kinase Chk1 (Homo sapiens) (O14757 whole entry): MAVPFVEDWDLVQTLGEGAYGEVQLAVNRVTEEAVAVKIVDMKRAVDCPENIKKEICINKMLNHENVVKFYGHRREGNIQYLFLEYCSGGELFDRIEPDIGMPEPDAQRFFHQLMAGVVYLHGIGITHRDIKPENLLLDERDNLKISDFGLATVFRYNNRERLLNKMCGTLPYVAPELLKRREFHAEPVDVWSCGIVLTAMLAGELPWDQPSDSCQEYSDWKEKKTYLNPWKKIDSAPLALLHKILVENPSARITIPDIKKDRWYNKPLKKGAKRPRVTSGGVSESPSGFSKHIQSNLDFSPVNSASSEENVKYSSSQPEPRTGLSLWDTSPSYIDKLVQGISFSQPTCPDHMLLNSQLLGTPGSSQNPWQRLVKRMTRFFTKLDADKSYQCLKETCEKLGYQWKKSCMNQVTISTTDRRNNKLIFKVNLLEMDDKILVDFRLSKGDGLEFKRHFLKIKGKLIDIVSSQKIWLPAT
The target of data set [16] is CDK6/cyclin D1 (Homo sapiens) (UniProt P24385+Q00534). The data set can be described thus: Inhibition of CDK6/Cyclin D1 (unknown origin) at 1 uM. Format: protein-complex assay.
Data set [17] addresses Macrophage colony-stimulating factor 1 receptor (Homo sapiens) (UniProt P07333). The data set can be described thus: Inhibition of FMS (unknown origin) at 1 uM.
The target of data set [18] is Inhibitor of nuclear factor kappa-B kinase subunit epsilon (Homo sapiens) (UniProt Q14164). The data set can be described thus: Inhibition of IKKepsilon (unknown origin) at 1 uM.
Sequence of Inhibitor of nuclear factor kappa-B kinase subunit epsilon (Homo sapiens) (Q14164 whole entry): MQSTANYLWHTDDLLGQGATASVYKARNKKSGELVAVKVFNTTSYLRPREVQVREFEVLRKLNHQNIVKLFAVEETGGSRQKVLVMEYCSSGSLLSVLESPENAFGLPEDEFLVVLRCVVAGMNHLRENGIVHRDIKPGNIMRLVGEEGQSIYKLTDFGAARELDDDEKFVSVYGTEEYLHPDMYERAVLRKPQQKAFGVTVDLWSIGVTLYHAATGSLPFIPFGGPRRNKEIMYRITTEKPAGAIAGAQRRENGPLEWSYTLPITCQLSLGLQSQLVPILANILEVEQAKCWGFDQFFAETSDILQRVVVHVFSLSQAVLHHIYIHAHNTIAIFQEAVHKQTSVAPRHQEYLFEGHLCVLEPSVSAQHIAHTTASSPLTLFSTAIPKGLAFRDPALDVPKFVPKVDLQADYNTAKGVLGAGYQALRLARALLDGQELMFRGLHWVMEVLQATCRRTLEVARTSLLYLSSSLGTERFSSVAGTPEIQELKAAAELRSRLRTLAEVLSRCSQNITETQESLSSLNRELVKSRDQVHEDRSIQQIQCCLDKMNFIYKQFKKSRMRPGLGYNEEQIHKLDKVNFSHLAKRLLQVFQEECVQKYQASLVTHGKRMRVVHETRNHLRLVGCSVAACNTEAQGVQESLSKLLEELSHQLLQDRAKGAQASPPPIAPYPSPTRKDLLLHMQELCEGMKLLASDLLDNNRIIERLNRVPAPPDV
Data set [19] has as its target Receptor-type tyrosine-protein kinase FLT3 (Homo sapiens) (UniProt P36888). The data set can be described thus: Inhibition of FLT3 (unknown origin) at 1 uM.
Data set [20] addresses Mitogen-activated protein kinase kinase kinase kinase 4 (Homo sapiens) (UniProt O95819). To be noted: 1 uM.
Data set [21] concerns the target T1, TRAF2 and NCK-interacting protein kinase. To be noted: 1 uM.
Target sequence in this assay (Q9UKE5 whole entry, looked up): as the sequence (Q9UKE5 whole entry, looked up) above

Converted amounts (≈) assume the structure as drawn. Bounds are passed on as bounds.

Sequence of Macrophage colony-stimulating factor 1 receptor (Homo sapiens) (P07333 whole entry): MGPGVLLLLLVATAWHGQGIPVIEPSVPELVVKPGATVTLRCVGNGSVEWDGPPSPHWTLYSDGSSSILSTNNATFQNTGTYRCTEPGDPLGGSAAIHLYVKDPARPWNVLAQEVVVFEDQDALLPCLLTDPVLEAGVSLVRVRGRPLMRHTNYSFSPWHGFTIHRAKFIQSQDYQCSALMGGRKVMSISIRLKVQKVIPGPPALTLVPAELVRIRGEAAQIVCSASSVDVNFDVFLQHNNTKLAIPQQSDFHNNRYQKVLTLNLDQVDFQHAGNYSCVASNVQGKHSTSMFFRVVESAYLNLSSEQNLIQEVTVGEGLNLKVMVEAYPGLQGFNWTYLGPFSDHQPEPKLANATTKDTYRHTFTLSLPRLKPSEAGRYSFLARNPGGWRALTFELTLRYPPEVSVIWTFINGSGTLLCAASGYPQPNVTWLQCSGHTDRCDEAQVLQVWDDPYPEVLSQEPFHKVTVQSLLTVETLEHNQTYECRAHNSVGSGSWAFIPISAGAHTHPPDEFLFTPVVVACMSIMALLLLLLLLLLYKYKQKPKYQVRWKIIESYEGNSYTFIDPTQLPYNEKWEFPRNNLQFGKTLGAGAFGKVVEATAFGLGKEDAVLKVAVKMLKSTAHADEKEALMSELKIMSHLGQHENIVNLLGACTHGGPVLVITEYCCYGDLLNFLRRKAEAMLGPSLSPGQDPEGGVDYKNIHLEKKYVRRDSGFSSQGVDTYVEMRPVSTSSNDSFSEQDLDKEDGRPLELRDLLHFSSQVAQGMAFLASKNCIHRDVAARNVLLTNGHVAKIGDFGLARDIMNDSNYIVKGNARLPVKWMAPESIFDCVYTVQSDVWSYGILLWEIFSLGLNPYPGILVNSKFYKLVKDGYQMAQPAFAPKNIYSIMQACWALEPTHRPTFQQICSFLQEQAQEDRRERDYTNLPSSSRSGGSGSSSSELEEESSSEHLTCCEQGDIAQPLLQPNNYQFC

Regarding `COc1ccc(C#N)cc1-c1ccnc(Nc2ccc(N3CCN(C)CC3)cc2)c1`, the Ratio IC50 in data set [1] was more than 6000. Further, the IC50 was more than 30000 nM in [2] and 5 nM in [3].
`COc1ccc(Cl)cc1-c1ccnc(Nc2ccc(N3CCOCC3)c(OC)c2)c1`: the concentration for half-maximal inhibition (IC50) in data set [4] amounted to 20000 nM; in data set [3], 41 nM.
As for `COc1ccc(C#N)cc1-c1ccnc(Nc2ccc(N3CCOCC3)c(OC)c2)c1`, the IC50 in data set [5] came out at 2300 nM; in data set [6] it was 5800 nM; in data set [7], 105 nM; in [8] it was 6800 nM.
Compound `COc1cc(Nc2cc(-c3ccc(C#N)cc3)ccn2)ccc1N1CCOCC1` had an IC50 in [3] of more than 1000 nM.
`COc1cc(Nc2cc(-c3cccc(C#N)c3)ccn2)ccc1N1CCOCC1`: the IC50 worked out at 7700 nM in data set [4] and 55 nM in data set [3].
In data set [3], `COc1ccc(C(F)(F)F)cc1-c1ccnc(Nc2ccc(N3CCOCC3)c(OC)c2)c1` registered a half-maximal inhibitory concentration (IC50) of 275 nM.
For `COc1ccc(Cl)cc1-c1ccnc(Nc2ccc(CCN3CCOCC3)cc2)c1`, the IC50 in data set [5] was 1700 nM; in data set [6], 1100 nM; in [7], 59 nM; in data set [8] it was 3700 nM; in data set [3], 20 nM.
For `COc1ccc(C#N)cc1-c1ccnc(Nc2ccc(N3CCOCC3)cc2)c1`, the Ratio IC50 in data set [1] was determined as 2400. Besides, the IC50 is 26000 nM in data set [2] and 11 nM in data set [3].
For `COc1ccc(F)cc1-c1ccnc(Nc2ccc(N3CCOCC3)c(OC)c2)c1`, in data set [3], the IC50 came to 118 nM.
`O=C1[C@H](Cc2ccc(O)cc2)N2C(=O)CCN(C(=O)NCc3ccccc3)[C@H]2CN1Cc1cccc2ccccc12`: the IC50 in data set [9] came to 1300 nM.
In the case of `COc1cc(Nc2cc(-c3cccc(CC#N)c3)ccn2)ccc1N1CCN(C)CC1`, the Ratio in [10] was 0.93. Moreover, the apparent permeability from basolateral to apical (Papp B→A) in data set [11] is 19.1 ×10⁻⁶ cm/s. For the same compound, the apical-to-basolateral permeability (Papp A→B) in data set [12] came to 20.5 ×10⁻⁶ cm/s. The concentration in solution in data set [13] (solubility) was 94 µM (≈ 38.9 µg/mL). Also, in data set [14], the Kd was 220 nM. This compound also yielded an IC50 in data set [3] of 290 nM.
For the compound `COc1cc(C#N)cc(-c2ccnc(Nc3ccc(N4CCOCC4)c(OC)c3)c2)c1`, in [3], 63 nM corresponded to half-maximal inhibition (IC50).
With `COc1cc(Nc2cc(-c3cccc(C#N)c3)ccn2)ccc1N1CCN(C)CC1`, the inhibition in data set [15] is more than 50%; in data set [16] it was more than 50%; in data set [17], 50%; in [18], more than 80%; in data set [19], 50%; in data set [20] it was more than 95%. This compound came in with an inhibition in data set [21] of more than 95%. Further, the Papp B→A in data set [11] was found to be 14.2 ×10⁻⁶ cm/s. The Papp A→B in data set [12] was 16 ×10⁻⁶ cm/s. Further, the concentration in solution in data set [13] (solubility) came to 78 µM (≈ 31.2 µg/mL). Further, the IC50 in data set [2] was determined as 27000 nM; in [3] it was 6 nM.
With `COc1ccc(Cl)cc1-c1ccnc(Nc2ccc(N3CCN(C)CC3)c(OC)c2)c1`, the Ratio IC50 in [1] was found to be 2000. Besides, the results for the IC50 in [2] and in data set [3] were 7900 nM and 4 nM, respectively.
Regarding `COc1ccc(C#N)cc1-c1ccnc(Nc2ccc(N3CCN(C)CC3)c(OC)c2)c1`, in data set [3], the IC50 was found to be 3 nM.
In the case of `COc1ccc(C#N)cc1-c1ccnc(Nc2ccc(N3CCC(N(C)C)CC3)c(F)c2)c1`, the Ratio IC50 in [1] stood at 280. The IC50 in data set [5] was found to be 260 nM; in data set [6], 330 nM; in data set [2] it was 3100 nM; in data set [7], 43 nM; in data set [8], 1200 nM; in data set [3], 11 nM.

For orientation: IC50 means the concentration needed to halve the response being measured. By Papp B→A is commonly meant how fast a substance crosses the layer from the basolateral side. The Papp A→B is the apparent permeability from the apical to the basolateral side of a cell layer. As usually defined, the solubility is the dissolved amount per volume that the medium holds. Low values mean little dissolved substance, high ones much dissolved substance. What is called Kd is the concentration at which binding is half-saturated. A word on the inhibition: it is the percentage by which the read-out fell short of the control. A high value points to a response far below the control.
